Tests used:
[1] = target: T1, RORγ-LBD (Homo sapiens, UniProt P51449); assay: RORγ-Ligand Binding Domain (LBD) TR-FRET Assay; format: biochemical; details: for TR-FRET Assay Max Response: maximum response;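 for TR-FRET Assay Max Response: 665/615 nm signal ratio set to 100 without ursolic acid or test compound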
T1 construct: made in house; host or cells: SF9 cells (baculovirus); used as diluted lysate
T1 sequence (P51449 269-508 limits assumed): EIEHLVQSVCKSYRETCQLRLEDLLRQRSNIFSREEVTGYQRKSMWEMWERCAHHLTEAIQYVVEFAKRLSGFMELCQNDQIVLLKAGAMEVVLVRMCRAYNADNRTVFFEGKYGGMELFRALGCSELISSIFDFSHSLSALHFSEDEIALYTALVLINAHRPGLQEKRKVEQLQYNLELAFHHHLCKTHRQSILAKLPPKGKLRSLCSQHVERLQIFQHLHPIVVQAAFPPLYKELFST
Method in brief: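 TR-FRET read-out using a biotin-tagged SRC1 coactivator LXXLL peptide (200 nM final), with the antagonist ursolic acid present at 2 μM final. Receptor is His-tagged LBD expressed in SF9 cells, ~3 nM final in pH 7.0 Tris/KCl/EDTA/DTT/BSA buffer; compounds in 1% DMSO final.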

[2] = target: T2, Gal4-RORγ-LBD (Homo sapiens, UniProt P51449); assay: Gal4-RORγ Luciferase Reporter Assay in HEK-293T Cells; format: cell-based; details: HEK-293 cells; for Gal4-RORγ Assay Max Response: maximum response
T2 construct: expressed in transfected cells
T2 sequence (P51449 269-508 limits assumed): T1 sequence (P51449 269-508 limits assumed)
Method in brief: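 Max Response was taken as the upper plateau of a 4-parameter logistic fit of luciferase signal, normalized to 100 for wells without ursolic acid or compound. Transiently Gal4-RORγ-LBD/Gal4-luc transfected HEK-293 cells carrying […] ursolic acid were incubated with test compounds (0.2% DMSO) overnight at 37 °C and read with One-Glo.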

[3] = luciferase reporter, in presence of ursolic acid
[4] = luciferase reporter, with ursolic acid
[5] = with 2 μM ursolic acid (RORγ antagonist), highest test concentration 10 μM
[6] = ursolic acid present, luciferase readout

| SMILES | EC50 ([1]; RORγ-LBD TR-FRET) | EC50 [2, 4] | further results |
| --- | --- | --- | --- |
| COc1cc(S(=O)(=O)N2C[C@H](CNC(=O)C(=O)O)Oc3ccc(/C=C(\C)c4c(F)cccc4Cl)cc32)ccc1F [Example 135B, (S,E)-2-(((6-(2-(2-chloro-6-fluorophenyl)prop-1-en-1-yl)-4-((4-fluoro-3-methoxyphenyl)sulfonyl)-3,4-dihydro-2H-benzo[b][1,4]oxazin-2-yl)methyl)amino)-2-oxoacetic acid] | – | – | EC50 ([1]; RORγ-LBD TR-FRET assay): < 500 nM; TR-FRET Assay Max Response ([1]; RORγ-LBD TR-FRET assay): **** (a value greater than 200); EC50 [2, 3]: > 10000 nM |
| C/C(=C\c1ccc2c(c1)N(S(=O)(=O)c1cn(C(C)C)nc1OCCO)C[C@H](CCC(=O)O)O2)c1c(F)cccc1Cl [Example 86AY, (S,E)-3-(6-(2-(2-chloro-6-fluorophenyl)prop-1-en-1-yl)-4-((3-(2-hydroxyethoxy)-1-isopropyl-1H-pyrazol-4-yl)sulfonyl)-3,4-dihydro-2H-benzo[b][1,4]oxazin-2-yl)propanoic acid] | < 500 nM | < 500 nM | – |
| C/C(=C\c1ccc2c(c1)N(S(=O)(=O)c1cccc(OC(F)(F)F)c1)C[C@H](CCC(=O)O)O2)c1c(F)cccc1Cl [Example 86S, (S,E)-3-(6-(2-(2-chloro-6-fluorophenyl)prop-1-en-1-yl)-4-((3-(trifluoromethoxy)phenyl)-sulfonyl)-3,4-dihydro-2H-benzo[b][1,4]oxazin-2-yl)propanoic acid] | < 500 nM | 500 to 5000 nM | – |
| COc1cc(S(=O)(=O)C2CC(CCC(=O)O)Oc3ccc(OCc4c(F)cccc4Cl)cc32)ccc1F (stereo not shown) [Example 179, 3-(6-((2-Chloro-6-fluorobenzyl)oxy)-4-((4-fluoro-3-methoxyphenyl)sulfonyl)chroman-2-yl)propanoic acid] | – | – | EC50 ([1]; RORγ-LBD TR-FRET assay): < 500 nM; TR-FRET Assay Max Response ([1]; RORγ-LBD TR-FRET assay): ** (a value in the range of greater than 90 to 150); EC50 [2, 3]: 500 to 5000 nM; Gal4-RORγ Assay Max Response [2, 3]: *** (a value in the range of greater than 150 to 200) |
| CCn1cc(S(=O)(=O)N2C[C@H]([C@@H](C)NC(C)=O)Oc3ccc(/C=C(\C)c4c(F)cccc4Cl)cc32)c(Cl)n1 [Example 102, N—((R)-1-((R)-4-((3-Chloro-1-ethyl-1H-pyrazol-4-yl)sulfonyl)-6-((E)-2-(2-chloro-6-fluorophenyl)prop-1-en-1-yl)-3,4-dihydro-2H-benzo[b][1,4]oxazin-2-yl)ethyl)acetamide] | < 500 nM | < 500 nM | – |
| C/C(=C\c1ccc2c(c1)N(S(=O)(=O)c1cccc(C(F)(F)F)c1)C[C@H]([C@@H](C)N)O2)c1c(F)cccc1Cl [Example 100, (R)-1-((R)-6-((E)-2-(2-Chloro-6-fluorophenyl)prop-1-en-1-yl)-4-((3-(trifluoromethyl)phenyl)sulfonyl)-3,4-dihydro-2H-benzo[b][1,4]oxazin-2-yl)ethan-1-amine] | < 500 nM | 500 to 5000 nM | – |
| CCOc1nn(CC)cc1S(=O)(=O)N1C[C@H](CCC(=O)O)Oc2ccc(/C=C/c3c(Cl)cccc3C(C)(F)F)cc21 [Example 89FE, (S,E)-3-(6-(2-chloro-6-(1,1-difluoroethyl)styryl)-4-((3-ethoxy-1-ethyl-1H-pyrazol-4-yl)sulfonyl)-3,4-dihydro-2H-benzo[b][1,4]oxazin-2-yl)propanoic acid] | < 500 nM | < 500 nM | – |
| O=C(O)CC[C@H]1CN(S(=O)(=O)c2cccc(OC(F)F)c2)c2cc(/C=C/c3c(F)cccc3C(F)(F)F)ccc2O1 [Example 89AI, (S,E)-3-(4-((3-(difluoromethoxy)phenyl)sulfonyl)-6-(2-fluoro-6-(trifluoromethyl)-styryl)-3,4-dihydro-2H-benzo[b][1,4]oxazin-2-yl)propanoic acid] | < 500 nM | 500 to 5000 nM | – |
| CC(C)=Cc1ccc2c(c1)N(S(=O)(=O)c1cccc(C(F)(F)F)c1)C[C@H](CCC(=O)O)O2 [Example 95AB, (S)-3-(6-(2-methylprop-1-en-1-yl)-4-((3-(trifluoromethyl)-phenyl)sulfonyl)-3,4-dihydro-2H-benzo[b][1,4]oxazin-2-yl)propanoic acid] | < 500 nM | 500 to 5000 nM | – |
| CCOc1nn(CC)cc1S(=O)(=O)N1C[C@H](CCC(=O)OC)Oc2ccc(/C=C/c3ccccc3F)cc21 [Example 89AN, (S,E)-methyl 3-(4-((3-ethoxy-1-ethyl-1H-pyrazol-4-yl)sulfonyl)-6-(2-fluorostyryl)-3,4-dihydro-2H-benzo[b][1,4]oxazin-2-yl)propanoate] | 500 to 5000 nM | > 10000 nM | – |
| C/C(=C\c1ccc2c(c1)N(S(=O)(=O)c1cccc(C(F)(F)F)c1)C[C@H](OC(C)(C)C(=O)O)C2)c1c(F)cccc1Cl [Example 173F, (R,E)-2-((7-(2-(2-chloro-6-fluorophenyl)prop-1-en-1-yl)-1-((3-(trifluoromethyl)phenyl)-sulfonyl)-1,2,3,4-tetrahydroquinolin-3-yl)oxy)-2-methylpropanoic acid] | – | – | EC50 ([1]; RORγ-LBD TR-FRET assay): < 500 nM; TR-FRET Assay Max Response ([1]; RORγ-LBD TR-FRET assay): *** (a value in the range of greater than 150 to 200); EC50 [2, 3]: < 500 nM; Gal4-RORγ Assay Max Response [2, 3]: ** (a value in the range of greater than 90 to 150) |
| CC/C(=C\c1ccc2c(c1)N(S(=O)(=O)c1cc(C(F)(F)F)cnc1OCCO)C[C@H](CCC(=O)OC)O2)C(C)C [Example 191F, methyl (S,E)-3-(6-(2-ethyl-3-methylbut-1-en-1-yl)-4-((2-(2-hydroxyethoxy)-5-(trifluoro-methyl)pyridin-3-yl)sulfonyl)-3,4-dihydro-2H-benzo[b][1,4]oxazin-2-yl)propanoate] | – | – | EC50 [1, 5]: < 500 nM; EC50 [2, 6]: 500 to 5000 nM |
| O=C(O)CC[C@H]1CN(S(=O)(=O)c2cccc(C(F)(F)F)c2)c2cc(/C=C/c3ncccc3Cl)ccc2O1 [Example 89BK, (S,E)-3-(6-(2-(3-chloropyridin-2-yl)vinyl)-4-((3-(trifluoromethyl)phenyl)sulfonyl)-3,4-dihydro-2H-benzo[b][1,4]oxazin-2-yl)propanoic acid] | < 500 nM | < 500 nM | – |
| COC(=O)CC[C@H]1CN(S(=O)(=O)c2cccc(OC(F)F)c2)c2cc(/C=C/c3ccccn3)ccc2O1 [Example 89D, (S,E)-methyl 3-(4-((3-(difluoromethoxy)phenyl)sulfonyl)-6-(2-(pyridin-2-yl)vinyl)-3,4-dihydro-2H-benzo[b][1,4]oxazin-2-yl)propanoate] | < 500 nM | 500 to 5000 nM | – |
| C/C(=C\c1ccc2c(c1)N(S(=O)(=O)c1cccc(C(F)(F)F)c1)C[C@H](CCCN1CCOCC1)O2)c1c(F)cccc1Cl [Example 119D, (S,E)-6-(2-(2-chloro-6-fluorophenyl)prop-1-en-1-yl)-2-(3-morpholinopropyl)-4-((3-(trifluoromethyl)-phenyl)sulfonyl)-3,4-dihydro-2H-benzo[b][1,4]oxazine] | – | – | EC50 ([1]; RORγ-LBD TR-FRET assay): < 500 nM; TR-FRET Assay Max Response ([1]; RORγ-LBD TR-FRET assay): *** (a value in the range of greater than 150 to 200); EC50 [2, 3]: < 500 nM; Gal4-RORγ Assay Max Response [2, 3]: ** (a value in the range of greater than 90 to 150) |
| C/C(=C\c1ccc2c(c1)N(S(=O)(=O)c1cccc(C(F)(F)F)c1)C[C@H](CCNC(=O)C(C)(C)O)O2)c1c(F)cccc1Cl [Example 115, (S,E)-N-(2-(6-(2-(2-Chloro-6-fluorophenyl)prop-1-en-1-yl)-4-((3-(trifluoromethyl)phenyl)sulfonyl)-3,4-dihydro-2H-benzo[b][1,4]oxazin-2-yl)ethyl)-2-hydroxy-2-methylpropanamide] | – | – | EC50 ([1]; RORγ-LBD TR-FRET assay): < 500 nM; TR-FRET Assay Max Response ([1]; RORγ-LBD TR-FRET assay): *** (a value in the range of greater than 150 to 200); EC50 [2, 3]: < 500 nM; Gal4-RORγ Assay Max Response [2, 3]: * (a value in the range of 30 to 90) |
| Cc1ccnc(/C=C/c2ccc3c(c2)N(S(=O)(=O)c2cccc(C(F)(F)F)c2)C[C@H](CCC(=O)O)O3)c1F [Example 89CH, (S,E)-3-(6-(2-(3-fluoro-4-methylpyridin-2-yl)vinyl)-4-((3-(trifluoromethyl)phenyl)sulfonyl)-3,4-dihydro-2H-benzo[b][1,4]-oxazin-2-yl)propanoic acid] | < 500 nM | > 10000 nM | – |
| COC(=O)CC[C@H]1CN(S(=O)(=O)c2cc(C3CC3)cnc2OCCO)c2cc(/C=C/c3c(F)cccc3Cl)ccc2O1 [Example 89FP, methyl (S,E)-3-(6-(2-chloro-6-fluorostyryl)-4-((5-cyclopropyl-2-(2-hydroxyethoxy)pyridin-3-yl)sulfonyl)-3,4-dihydro-2H-benzo[b][1,4]oxazin-2-yl)propanoate] | – | – | EC50 [1, 5]: < 500 nM; EC50 [2, 6]: < 500 nM |
| COC(=O)CC[C@H]1CN(S(=O)(=O)c2cccc(C(F)(F)F)c2)c2cc(C=C3CCCCC3)ccc2O1 [Example 90, Methyl (S)-3-(6-(cyclohexylidenemethyl)-4-((3-(trifluoromethyl)phenyl)sulfonyl)-3,4-dihydro-2H-benzo[b][1,4]oxazin-2-yl)propanoate] | < 500 nM | 500 to 5000 nM | – |
| Cc1nn(C)c2ncc(S(=O)(=O)N3C[C@H](CCC(=O)O)Oc4ccc(/C=C/c5c(F)cccc5Cl)cc43)cc12 [Example 89DX, (S,E)-3-(6-(2-chloro-6-fluorostyryl)-4-((1,3-dimethyl-1H-pyrazolo[3,4-b]pyridin-5-yl)sulfonyl)-3,4-dihydro-2H-benzo[b][1,4]oxazin-2-yl)propanoic acid] | 500 to 5000 nM | > 10000 nM | – |

Reference: patent US9896441B2 (Lycera Corporation, priority 2014, dated 2018)
